In patent publication US11339419B2, “Scavenger protein(s) for improved preservation of analyte detection sensor(s) and method(s) of use thereof” (Siemens Healthcare Diagnostics Inc., priority 2017, dated 2022):
Where “and” joins values, the source holds several entries; their conditions need not be identical. Identical values can stand only once.

Key:
creatininase (Toyobo) = experiment: Toyobo Creatininase Enzyme Absorbance with BSA and MIT; type: biochemical
From the text: Absorbance measurements of the creatininase enzyme(s) were taken via spectrophotometer for each aqueous solution (represented as columns 1-5 in Tables 5-8—column 6 is a blank), the absorbance being directly proportional to the enzyme activity being measured-which for Tables 5-8 is creatininase enzyme activity. Accordingly, the higher the absorbance measurement, the higher the enzyme activity of creatininase. Columns 7-11 represent five replicate readings in which the solution only contains BSA (i.e., there is no biocide(s) present in the solution). In addition, the mean values, standard deviations, and coefficients of variation are all presented for the enzyme activity/absorbance of each aqueous solution. All measurements were taken at 37° C.
As depicted in Table 6, creatininase (commercially offered for sale by Toyobo) enzyme activity is measured against various concentrations of MIT (biocide) and BSA (scavenger protein) over a period of 14 days (with absorbance measurement taken at 0, 4, and 14 days) for five different aqueous solutions (represented as columns 1-5—column 6 is a blank).

[1] = tested on: creatininase (BBI Solutions); experiment: BBI Solutions Creatininase Enzyme Absorbance with BSA and Proclin 300; type: biochemical
From the text: Absorbance measurements of the creatininase enzyme(s) were taken via spectrophotometer for each aqueous solution (represented as columns 1-5 in Tables 5-8—column 6 is a blank), the absorbance being directly proportional to the enzyme activity being measured-which for Tables 5-8 is creatininase enzyme activity. Accordingly, the higher the absorbance measurement, the higher the enzyme activity of creatininase. […] In addition, the mean values, standard deviations, and coefficients of variation are all presented for the enzyme activity/absorbance of each aqueous solution. All measurements were taken at 37° C.

[2] = Day 4, 100 ppm MIT, 5 mg/mL BSA
[3] = Day 4, 100 ppm MIT, 25 mg/mL BSA
[4] = Day 4, 100 ppm MIT, 50 mg/mL BSA
[5] = Day 14, 50 ppm MIT, 5 mg/mL BSA
[6] = Day 14, 50 ppm MIT, 25 mg/mL BSA
[7] = Day 14, 50 ppm MIT, 50 mg/mL BSA
[8] = Day 14, 100 ppm MIT, 5 mg/mL BSA
[9] = Day 14, 100 ppm MIT, 25 mg/mL BSA
[10] = Day 14, 100 ppm MIT, 50 mg/mL BSA
[11] = Day 0, BSA 5 mg/mL only, no Proclin 300, listed as of 0.7% Proclin 300
[12] = Day 0, BSA 5 mg/mL only, no Proclin 300, listed as of 1.4% Proclin 300
[13] = Day 0, BSA 25 mg/mL only, no Proclin 300, listed as of 0.7% Proclin 300
[14] = Day 0, BSA 25 mg/mL only, no Proclin 300, listed as of 1.4% Proclin 300
[15] = Day 0, BSA 50 mg/mL only, no Proclin 300, listed as of 0.7% Proclin 300
[16] = Day 0, BSA 50 mg/mL only, no Proclin 300, listed as of 1.4% Proclin 300
[17] = Day 4, BSA 5 mg/mL only, no Proclin 300, listed as of 0.7% Proclin 300
[18] = Day 4, BSA 5 mg/mL only, no Proclin 300, listed as of 1.4% Proclin 300
[19] = Day 4, BSA 25 mg/mL only, no Proclin 300, listed as of 0.7% Proclin 300
[20] = Day 4, BSA 25 mg/mL only, no Proclin 300, listed as of 1.4% Proclin 300
[21] = Day 4, BSA 50 mg/mL only, no Proclin 300, listed as of 0.7% Proclin 300
[22] = Day 4, BSA 50 mg/mL only, no Proclin 300, listed as of 1.4% Proclin 300
[23] = Day 14, BSA 5 mg/mL only, no Proclin 300, listed as of 0.7% Proclin 300
[24] = Day 14, BSA 5 mg/mL only, no Proclin 300, listed as of 1.4% Proclin 300
[25] = Day 14, BSA 25 mg/mL only, no Proclin 300, listed as of 0.7% Proclin 300
[26] = Day 14, BSA 25 mg/mL only, no Proclin 300, listed as of 1.4% Proclin 300
[27] = Day 14, BSA 50 mg/mL only, no Proclin 300, listed as of 0.7% Proclin 300
[28] = Day 14, BSA 50 mg/mL only, no Proclin 300, listed as of 1.4% Proclin 300

Substance: bovine serum albumin [BSA]
- % Bias (creatininase (Toyobo); Day 4, 100 ppm MIT vs no MIT, 50 mg/mL BSA): 7.0%
- Creatininase Enzyme Absorbance (creatininase (Toyobo); [2]): 0.998 and 0.974 and 1.006 and 1.008 and 1.031
- MEAN (creatininase (Toyobo); [2]): 0.79
- Creatininase Enzyme Absorbance (creatininase (Toyobo); [3]): 0.871 and 0.863 and 0.869 and 0.86 and 0.866
- MEAN (creatininase (Toyobo); [3]): 0.65
- Creatininase Enzyme Absorbance (creatininase (Toyobo); [4]): 0.773 and 0.775 and 0.754 and 0.734 and 0.742
- MEAN (creatininase (Toyobo); [4]): 0.54
- MEAN (columns 7-11) (creatininase (Toyobo); Day 14, 5 mg/mL BSA, no MIT (row of 50 ppm MIT)): 0.90
- MEAN (columns 7-11) (creatininase (Toyobo); Day 14, 5 mg/mL BSA, no MIT (row of 100 ppm MIT)): 0.87
- MEAN (columns 7-11) (creatininase (Toyobo); Day 14, 25 mg/mL BSA, no MIT (row of 50 ppm MIT)): 0.70
- MEAN (columns 7-11) (creatininase (Toyobo); Day 14, 25 mg/mL BSA, no MIT (row of 100 ppm MIT)): 0.72
- MEAN (columns 7-11) (creatininase (Toyobo); Day 14, 50 mg/mL BSA, no MIT (row of 50 ppm MIT)): 0.55
- MEAN (columns 7-11) (creatininase (Toyobo); Day 14, 50 mg/mL BSA, no MIT (row of 100 ppm MIT)): 0.56
- % Bias (creatininase (Toyobo); Day 14, 50 ppm MIT vs no MIT, 5 mg/mL BSA): −1.7%
- % Bias (creatininase (Toyobo); Day 14, 50 ppm MIT vs no MIT, 25 mg/mL BSA): 10.4%
- % Bias (creatininase (Toyobo); Day 14, 50 ppm MIT vs no MIT, 50 mg/mL BSA): 3.9%
- Creatininase Enzyme Absorbance (creatininase (Toyobo); [5]): 1.13 and 1.104 and 1.098 and 1.12 and 1.117
- MEAN (creatininase (Toyobo); [5]): 0.88
- Creatininase Enzyme Absorbance (creatininase (Toyobo); [6]): 1.021 and 0.986 and 0.982 and 1.025 and 0.996
- MEAN (creatininase (Toyobo); [6]): 0.77
- Creatininase Enzyme Absorbance (creatininase (Toyobo); [7]): 0.814 and 0.793 and 0.789 and 0.796 and 0.804
- MEAN (creatininase (Toyobo); [7]): 0.57
- % Bias (creatininase (Toyobo); Day 14, 100 ppm MIT vs no MIT, 5 mg/mL BSA): 4.1%
- % Bias (creatininase (Toyobo); Day 14, 100 ppm MIT vs no MIT, 25 mg/mL BSA): 3.3%
- % Bias (creatininase (Toyobo); Day 14, 100 ppm MIT vs no MIT, 50 mg/mL BSA): 6.0%
- Creatininase Enzyme Absorbance (creatininase (Toyobo); [8]): 1.155 and 1.123 and 1.105 and 1.133 and 1.156
- MEAN (creatininase (Toyobo); [8]): 0.91
- Creatininase Enzyme Absorbance (creatininase (Toyobo); [9]): 0.997 and 0.966 and 0.95 and 0.992 and 0.976
- MEAN (creatininase (Toyobo); [9]): 0.75
- Creatininase Enzyme Absorbance (creatininase (Toyobo); [10]): 0.854 and 0.822 and 0.792 and 0.828 and 0.832
- MEAN (creatininase (Toyobo); [10]): 0.60
- absorbance of the creatininase enzyme compared to samples containing 0 mg/mL of BSA (creatininase (Toyobo); days 4 and 14, 5, 25 and 50 mg/mL BSA, with MIT): increased absorbance
- creatininase absorbance, solutions 7-11 (creatininase (Toyobo); days 4 and 14, only BSA, no MIT): increased (or at least maintained)
- BSA concentration at which the creatininase absorbance measurement is highest (creatininase (Toyobo); days 4 and 14, with MIT): 5 mg/mL
- Absorbance, solutions 7-11 [1, 11]: 0.658 and 0.656 and 0.654 and 0.693 and 0.67
- MEAN absorbance, solutions 7-11 [1, 11]: 0.45
- Absorbance, solutions 7-11 [1, 12]: 0.65 and 0.644 and 0.679 and 0.656 and 0.652
- MEAN absorbance, solutions 7-11 [1, 12]: 0.44
- Absorbance, solutions 7-11 [1, 13]: 0.669 and 0.654 and 0.645 and 0.676 and 0.685
- MEAN absorbance, solutions 7-11 [1, 13]: 0.45
- Absorbance, solutions 7-11 [1, 14]: 0.613 and 0.607 and 0.624 and 0.644 and 0.627
- MEAN absorbance, solutions 7-11 [1, 14]: 0.41
- Absorbance, solutions 7-11 [1, 15]: 0.682 and 0.675 and 0.716
- MEAN absorbance, solutions 7-11 [1, 15]: 0.48
- Absorbance, solutions 7-11 [1, 16]: 0.593 and 0.598 and 0.617 and 0.624 and 0.606
- MEAN absorbance, solutions 7-11 [1, 16]: 0.39
- Absorbance, solutions 7-11 [1, 17]: 0.886 and 0.907 and 0.938 and 0.922 and 0.893
- MEAN absorbance, solutions 7-11 [1, 17]: 0.69
- Absorbance, solutions 7-11 [1, 18]: 0.863 and 0.829 and 0.895 and 0.929 and 0.882
- MEAN absorbance, solutions 7-11 [1, 18]: 0.65
- Absorbance, solutions 7-11 [1, 19]: 0.783 and 0.769 and 0.787 and 0.807
- MEAN absorbance, solutions 7-11 [1, 19]: 0.56
- Absorbance, solutions 7-11 [1, 20]: 0.757 and 0.715 and 0.735 and 0.756 and 0.767
- MEAN absorbance, solutions 7-11 [1, 20]: 0.52
- Absorbance, solutions 7-11 [1, 21]: 0.671 and 0.651 and 0.656 and 0.677 and 0.657
- MEAN absorbance, solutions 7-11 [1, 21]: 0.44
- Absorbance, solutions 7-11 [1, 22]: 0.671 and 0.657 and 0.676 and 0.674 and 0.645
- MEAN absorbance, solutions 7-11 [1, 22]: 0.44
- Absorbance, solutions 7-11 [1, 23]: 0.993 and 0.992 and 0.972 and 1.009
- MEAN absorbance, solutions 7-11 [1, 23]: 0.76
- Absorbance, solutions 7-11 [1, 24]: 0.987 and 0.959 and 0.967 and 1.007 and 0.986
- MEAN absorbance, solutions 7-11 [1, 24]: 0.75
- Absorbance, solutions 7-11 [1, 25]: 0.841 and 0.843 and 0.815 and 0.846 and 0.808
- MEAN absorbance, solutions 7-11 [1, 25]: 0.60
- Absorbance, solutions 7-11 [1, 26]: 0.825 and 0.799 and 0.805 and 0.829 and 0.817
- MEAN absorbance, solutions 7-11 [1, 26]: 0.59
- Absorbance, solutions 7-11 [1, 27]: 0.672 and 0.653 and 0.659 and 0.682 and 0.685
- MEAN absorbance, solutions 7-11 [1, 27]: 0.44
- Absorbance, solutions 7-11 [1, 28]: 0.652 and 0.643 and 0.64 and 0.67 and 0.655
- MEAN absorbance, solutions 7-11 [1, 28]: 0.42
- absorbance of the creatininase enzyme compared to samples containing 0 mg/mL of BSA ([1]; day 4, Proclin 300 0.7%, 5, 25 and 50 mg/mL BSA): mild increase
- creatininase absorbance, solutions 7-11 ([1]; days 4 and 14, only BSA, no Proclin 300): increased (or at least maintained)
